Results reported in US20090304827A1, “Combinations of Ingredients Having Synergistic Anti-Inflammatory Effects” (priority 2008, published 2009).

Tests used:
[1] = tested on: LPS-induced PGE2 production; conditions: cited from earlier work
[2] = tested on: LPS-induced NO production; conditions: cited from earlier work
iNOS = conditions: cited from earlier work
[3] = tested on: LPS-induced nitrite (NO) generation on murine macrophage RAW264.7 cells; experiment: Nitrite assay: LPS-induced nitrite (NO) generation, Griess reaction; type: cell-based; conditions: either singly or in combination
Text: The term “synergy” refers to the phenomenon in which the combination of two or more discrete agents acting together can cause a greater response than simply the sum of the individual effects of each agent if they were used separately. It is not uncommon to find the presence of two or more chemical constituents or herbs on an organism to be greater than the effect of each chemical constituent or herb individually, or the sum of the individual effects. […]
The nitrite concentration in the medium was measured as an indicator of NO production, a common phenomenon of the inflammation process, according to the Griess reaction. […] One hundred microliters of supernatant was mixed with the same volume of Griess reagent (1% sulfanilamide in 5% phosphoric acid and 0.1% naphthylethylenediamine dihydrocholide in water); absorbance of the mixture at 550 nm was determined with an ELISA plate reader (Dynatech MR-7000; Dynatech Laboratories Inc.).
Various combinations of herbal extracts were investigated for anti-inflammatory effect using nitrite assay. For the study, RAW 264.7 cells were treated with LPS (10 μg/mL) to induce nitrite production, various concentrations and combinations thereof were added, and the nitrite concentration in the medium was measured as an indicator of the inhibition of NO production, a common phenomenon of the inflammation process.

[4] = tested on: RAW 264.7 cells activated with bacterial lipopolysaccharide; conditions: LPS 50 ng ml^−1; cited from earlier work

| Compound | COX-2 gene expression / activation [1] | LPS-induced PGE2 production [1] | LPS-induced NO production [2] | iNOS gene expression / activation [2] | iNOS enzyme activity (iNOS) | anti-inflammatory property (inhibition of NO production) [3] | NO generation in activated macrophages (nitrite released into the culture medium) [4] | amount of cytosolic iNOS protein and steady state mRNA levels [4] |
| --- | --- | --- | --- | --- | --- | --- | --- | --- |
| COc1c(O)cc2oc(-c3ccccc3)cc(=O)c2c1O [Oroxylin A] | blocking | potent inhibitor | potent inhibitor | blocking |  |  |  |  |
| O=c1cc(-c2ccccc2)oc2cc(O)c(O)c(O)c12 [baicalein] | not | not | significantly inhibited | significantly inhibited | did not inhibit |  |  |  |
| O=C(O)[C@H]1O[C@@H](Oc2cc3oc(-c4ccccc4)cc(=O)c3c(O)c2O)[C@H](O)[C@@H](O)[C@@H]1O [Baicalin] | not | not | significantly inhibited | significantly inhibited | did not inhibit |  |  |  |
| O=C1O[C@H]([C@@H](O)CO)C(O)=C1O [Vitamin C, L-ascorbate] |  |  |  |  |  | did not show any noticeable anti-inflammatory property |  |  |
| Tocopherol [vitamin E] |  |  |  |  |  | did not show any noticeable anti-inflammatory property |  |  |
| Oc1ccc(C=Cc2cc(O)cc(O)c2)cc1 [Resveratrol] |  |  |  |  |  |  | strongly to inhibit | strongly reduced |
| COc1c(O)cc(O)c2c(=O)cc(-c3ccccc3)oc12 [wogonin] | inhibited | inhibited | significantly inhibited | significantly inhibited | did not inhibit |  |  |  |
